According to patent publication US10759777B2, “Carbazole-containing amides, carbamates, and ureas as cryptochrome modulators” (Synchronicity Pharma, Inc., priority 2014, dated 2020):

How the values were obtained:
[1] = test system: core clock genes Per2, Bmal1, Cry2 in liver; assay: Four day study, liver core clock gene mRNA in ICR mice; format: in vivo, mouse; details: 50 mg/kg PO BID 4 days; for liver Per2 expression: ZT6
Procedure: Male ICR mice (weighing 30-35 g), obtained from Charles River Laboratories (Hollister, Calif.), were used for the experiment following at least 3 days of acclimation. Mice were dosed with vehicle (WFI or 10% Kolliphor) or compound (50 mg/kg, dose volume 5 mL/kg, PO) for 4 days BID (twice a day), beginning in the afternoon of the first day. The last dose of compound or vehicle was administered on the morning of harvest. On the day of harvest (6 hours following the final dose), mice were euthanized by CO2 asphyxiation and 50 mg of liver tissue was excised and placed in a tube containing 500 μl of RNA later.
E.Z.N.A.® HP Total RNA Isolation Kits (R6812-01 and the protocol described in the Manual, Revised 2010) were utilized to prepare and isolate RNA from the liver samples. To prepare the RNA samples, 10-30 mg of sample was removed from RNA-Later and placed in a 1.5 ml microfuge tube. GTC lysis buffer (700 μl) was added to the tissue, which was homogenized with a rotor-stator homogenizer (e.g. Tissue-Tearor, Model #985370 BioSpec Products with 4.5 mm probe, Cat. #985370-04), and then centrifuged at full speed (≥13,000×g) for 5 minutes. The cleared supernatant was transferred by pipetting to a DNA Clearance Column Pre-inserted in a 2 mL Collection Tube. The assembled column was centrifuged at 13,000×g for 1 minute, and the flow-through was saved. An equal volume (700 μl) of 70% ethanol was added to the lysate and mixed. The sample was then applied to a HiBind RNA spin column placed into a 2 ml collection tube, which was centrifuged at 10,000×g for 60 seconds at room temperature. RNA Wash Buffer I (250 μl) was added by pipetting directly onto a new HiBind RNA column inserted in a 2 ml collection tube. The assembled column was centrifuged at 10,000×g for 60 seconds. The RNA column was placed into a new 2 ml collection tube. DNase I stock solution is pipetted (75 μl) directly onto the surface of the HiBind RNA resin in each column (Using DNAse Digestion with RNase Free DNase Set (E1091): for each HiBind RNA column, the DNase I stock solution was prepared as followed: E.Z.N.A.® DNase I Digestion Buffer 73.5 μl, RNase Free DNase I (20 Kunitz/μl) 1.5 μl=Total Volume 75 μl). The column with bound RNA was incubated at room temperature (25-30° C.) for 15 minutes. RNA Wash Buffer I (500 μl) was added to the column and placed on a bench top for 2 minutes. After centrifuging at 10,000×g for 60 seconds, discarding the flow-through, 500 μl of RNA Wash Buffer II was added and centrifuged at 10,000×g for 60 seconds. Another 500 μl of RNA Wash Buffer II was added and the column assembly was centrifuged at 10,000×g for 60 seconds. The column was centrifuged for 2 minutes at maximum speed to completely dry the HiBind matrix. The column was placed in a clean 1.5 ml microcentrifuge tube and 40-70 μl of molecular biology grade water is added. After sitting for 1 minute, the column was centrifuged for 2 minutes at maximum speed to elute the RNA. The isolated RNA was collected into the collection tube.
RediPlate 96 RiboGreen RNA Quantification Kit (Invitrogen) RediPlate standard curve was prepared by transferring 20 l reconstituted RNA standard to a RediPlate well reconstituted in 180 l RediPlate TE buffer. For liver RNAs prepared from 30-100 mg of tissue using a kit similar to the Omega Bio-Tek HP Total RNA Kit and eluted in RNAse-free water in a volume of 50 l (microliters), 5 l of the total RNA is diluted in 195 l of RediPlate TE buffer (1:40 dilution of RNA), mix. After transferring 5 l to RediPlate well reconstituted in 195 l TE buffer and incubating 10 min. at RT, Fluorescence Intensity of wells with standards and samples were read in a Tecan M200 with Excitation set at 480 nm and Emission set at 520 nm with the gain set to ˜70%. Alternatively, one can use the FlexStation 3 with Ex 488 nm and Em 525 nm and a Cutoff of 515 nm.

[2] = test system: stable U20S reporter cells harboring Per2-dLuc; assay: Per2 assay for evaluating the potency of test compounds (Per2-dLuc luminescence amplitude); format: cell-based
Procedure: Compounds were screened by using a high-throughput circadian assay system as previously described in Zhang, E. E. et al. Cell, 2009, 139, 199-210. In brief, stable U20S reporter cells harboring Per2-dLuc were plated at a density of 30,000 cells/well in Corning 96-well, solid white, flat bottom, TC-treated microplates (Corning®), and incubated for 48 hours at 37° C. in the presence of 5% CO2 in a medium of Dulbecco's Modified Eagle Medium (DMEM) supplemented with 10% fetal bovine serum (FBS) and penicillin (100 units/mL)-streptomycin (100 μg/mL). […] DMSO stocks are then serially diluted in DMSO, typically diluting 3-fold for each dilution step. […] Immediately following synchronization, 1 μL of compound dilution is added to each well. Plates are sealed, shaken briefly, and gene expression was monitored by measuring luminescence (Tecan® Infinite M200 or Tecan® Infinite M200 Pro) continuously for a minimum of 3 days at 35° C. Raw luminescence data (counts) are first analyzed using Multicycle™ software (Actimetrics, Inc.) to determine the amplitude (amp), period, and phase (phz) for each compound concentration. The period length for control wells (i.e. no compound, DMSO only) should be 26-30 h. Amp data are then plotted against the logarithm compound concentration (M) and analyzed by nonlinear regression analysis to determine the EC50.

[3] = test system: rat model of cortisone-induced insulin resistance; assay: Cortisone induced insulin resistance in rats; format: in vivo; details: cortisone 30 mg/kg sc with vehicle po
Procedure: Animals were dosed with cortisone (30 mg/kg sc qd) in combination with test compounds for 6 days and then terminated 27 hours after the final dose of cortisone. A reference standard (Mifepristone) was also included. Cortisone 21-acetate (Sigma C-3130) was supplied by RenaSci and administered using a dose volume of 5 ml/kg via the subcutaneous route as a fine suspension in 1% methylcellulose. […] Mifepristone (Sigma M8046) was provided by RenaSci.
Glucose and insulin determinations were performed on plasma samples obtained from a tail vein bleed taken after a 12 h fast, approximately 27 h after the last cortisone dose. Animals were then terminated and a terminal (cardiac) blood sample taken from which plasma was prepared.
Thirty four male Sprague Dawley rats (weight range 200-250 g) were ordered from Charles River, Margate, Kent, UK. […] Subsequently, animals underwent a 3 day baseline period during which they were dosed once daily with vehicle at t=0 h (07:00). […] Body weight was recorded immediately before dosing began at 07:00 (t=0 h).
On Day 6 of dosing rats were fasted for 12 h beginning at 22:30 (timed to coincide with the Day 7 termination). […] At 10:30 on Day 7, 27 h after the final dose of cortisone, a blood sample (300 μl) was taken from the lateral tail vein into tubes containing EDTA (Sarstedt 16.444). The blood was centrifuged and resultant plasma aliquot stored at −75° C. The animals were euthanized by CO2 asphyxiation followed by cervical dislocation. Terminal blood (approximately 10 ml) was collected by cardiac puncture into tubes containing EDTA (Sarstedt 5 ml 32.332) and then centrifuged and plasma stored at −75° C. The tail vein plasma was analyzed for glucose (n=2) using a commercial clinical reagent (Thermoelectron Infinity glucose reagent (TR15421) and for insulin (n=1) using the Mercodia ultrasensitive rat insulin rat ELISA (10-1251-10).
Plasma glucose and insulin were analyzed by robust regression or general linear model with treatment as a factor and bleeding order and baseline body weight as covariates. A log transformation was used if appropriate. Appropriate multiple comparison tests (two-tailed) were used to determine significant differences from the vehicle group and from the Cortisone group. P<0.05 was considered to be statistically significant.

With `O=C1C2CCC(C2)N1CC(O)Cn1c2ccc(F)cc2c2cc(F)ccc21` (stereo not drawn) [Compound 48, 2-(3-(3,6-difluoro-9H-carbazol-9-yl)-2-hvdroxypropyl)-2-azabicyclo[2.2.1]heptan-3-one] the “liver Per2 expression” value [1] was “suppression”, the Cry2 transcripts ([1]; liver) was “decrease” and the “increase in Bmal1 mRNA at ZT6” value ([1]; liver) was 8 fold.

For `COC1CCCN(CC(O)Cn2c3ccc(F)cc3c3cc(F)ccc32)C1=O` (stereo not drawn) [Compound 57, 1-(3-(3,6-difluoro-9H-carbazol-9-yl)-2-hydroxypropyl)-3-methoxypiperidin-2-one], the “liver Per2 expression” value [1] was “suppression” and the “increase in Bmal1 mRNA at ZT6” value ([1]; liver) was ≥ 2 fold.

Work on `C[C@@H]1CN(C[C@H](O)Cn2c3ccccc3c3ccccc32)C(=O)N1` [Compound 138, (R)-1-((R)-3-(9H-carbazol-9-yl)-2-hydropropyl)-4-methylimidazolidin-2-one] yielded an EC50 [2] of 520 nM.

In the case of `C[C@]12CCC(=O)C=C1CC[C@@H]1[C@@H]2C(=O)C[C@@]2(C)[C@H]1CC[C@]2(O)C(=O)CO` [Cortisone], the HOMA-IR [3] is reported as 95.57+/−11.4 units, the fasted plasma insulin [3] is reported as 8.19 ± 0.91 ng/mL and the fasted plasma glucose ([3]; rats) is reported as 10.17 ± 0.51 mM.
